Series [1] in a line: Systemic toxicity of pPhD NPs (body weight, H&E). The class given is in vivo. Here is the method: Tumor volume and body weight measurements. The body weights and tumor sizes were monitored three times a week, and the tumor volume was calculated by the following formula: Tumor volume=Length×(Width/2)^2.
H&E evaluation. All laser-treated tumors were collected and stained with hematoxylin and eosin (H&E) to evaluate the effect of phototherapy. The main organs of each group, including heart, liver, spleen, lung, kidney, small intestine, were collected for H&E assay to evaluate the toxicity of the materials.

For series [2], the system named is OSC-3 cells. The experiment in a line: Cell viability with or without laser.
Procedure: The synergistic effect of the chemotherapy and phototherapy of pPhD NPs was evaluated. OSC-3 cells were incubated with different concentrations of free photosensitizer (Phy), free chemotherapeutic drug (DOX) and pPhD NPs, respectively, then treated with or without laser (FIG. 11i).
The test system of series [3] is A549 human lung cancer cells. The experiment in a line: Cell uptake and intracellular ROS production. The class given is cell-based. To be noted: upon laser/light illumination. Here is the method:
Cell uptake and intracellular ROS production. […] After three times of washes with PBS, cells were incubated with 50 μM DCF-DA for 30 minutes. Samples were treated with or without light (630 nm, Omnilux New-U LED panel) for 1 minute, and intracellular […] (based on Pa fluorescence) and ROS production were analyzed by flow cytometry ([…], BD Bioscience, SD, CA).

The subject of series [4] is U87-MG tumour cells. Description: Cell viability (MTS) with or without laser. Format: cell-based. Here is the method:
Cell viabilities evaluation. U87-MG cells were purchased from the American Type Culture Collection (ATCC, Manassas, Va., USA). Cells were cultured in RPMI 1640 Medium supplemented with 10% fetal bovine serum, 100 U/mL penicillin G, and […] streptomycin in a humidified 37° C. with 5% CO2. Cell viabilities were determined by MTS method. U87-MG cells were seeded in 96-well plates with a density of 5000 cells per well. The cells were incubated overnight until fully attached. The cells were treated with different concentrations of Pa, Ir, Pa and Ir mixture and PIN. 12 h later, the extracellular materials were washed off with PBS and replaced with fresh culture media. Laser treated group were exposed under a laser source of Omnilux New-U device (630 nm) for 3 min, and further incubated with non-laser treated cells for another 24 h. MTS was added to each well and further incubated for 2 h. The UV-vis absorbance at 495 nm with a reference wavelength of 630 nm was detected using a micro-plate reader using an SpectraMax M3 Multi-Mode Microplate Readers (Molecular Devices, LLC., CA, USA). Untreated cells in medium were used as controls. […]. Results were shown as the average cell viability [(ODtreat−ODblank)/(ODcontrol−ODblank)*100%] of triplicate wells.

Series [5] relates to A549 cells. Description: Cytotoxicity assay (MTS) with or without light. The class given is cell-based, human. To be noted: upon light treatment (630 nm, 3 min). How it is done:
Cytotoxicity assay. Cell viabilities were determined by MTS method according to manufactory manual (Promega, Madison, Wis.). A549 cells were seeded in 96-wells plates with a density of 5000 cells per well. […] Six hours later, medium was replaced with fresh complete media followed by illumination with 630 nm light for 3 minutes. After additional 24 hours incubation, MTS working solution was added and the absorbance at 490 nm was evaluated by SpectraMax M3 microplate reader. Experiments were performed in triplicate, and 3 independent experiments were conducted.

Regarding `COc1cccc2c1C(=O)c1c(O)c3c(c(O)c1C2=O)C[C@@](O)(C(=O)CO)C[C@@H]3O[C@H]1C[C@H](N)[C@H](O)[C@H](C)O1` [DOX, doxorubicin], the “body weight changes / systemic toxicity” value in series [1] (during treatment) was “obvious body weights loss”. For the same compound, the “lesion of major organs (H&E)” value in series [1] (mouse, in vivo) was “obvious liver and heart toxicity”. The cytotoxicity result in series [2] was “notable anti-tumor efficacy”.
Regarding `CCc1c2c(nc3ccc(OC(=O)N4CCC(N5CCCCC5)CC4)cc13)-c1cc3c(c(=O)n1C2)COC(=O)[C@]3(O)CC` [Ir, irinotecan], in series [3], the “intracellular ROS production” value is on record as “did not produce intracellular ROS”.
For pheophorbide A [Pa], the IC50 in series [4] (with laser treatment (630 nm, 3 min)) is about 50 µM; in series [5] it was 7 µM. Moreover, the cytotoxicity entry in series [4] (without laser) was “no obvious cytotoxicity”.
Take pheophorbide a-hydrazide [Phy]: the cytotoxicity result in series [2] is “no obvious cytotoxicity”.

The values are drawn from patent US11559585B2, “Conjugates of active pharmaceutical ingredients” (priority 2017, dated 2023).
